Data taken from US7572814B2, “3,5-dibenzoyl-4-phenyl-piperidine anti-cancer compounds” (Cytokinetics, Incorporated, priority 2005, dated 2009).

Tests used:
A549 cells = details: data provided by National Cancer Institute; cited from earlier work
[1] = system: SKOV-3 human ovarian carcinoma; assay: Tumor growth delay (TGD) study, established SKOV-3 tumors in athymic nude mice; assay type: in vivo; details: 30 mg/kg i.v. qod×5
Procedure: Certain of the chemical entities described herein were evaluated for in vivo activity against SKOV-3 human ovarian carcinoma in a tumor growth delay (TGD) study. The study utilized eight groups (n=8) of athymic nude mice bearing established (63-144 mm3) SKOV-3 tumors on Day 1, and included a vehicle-treated tumor growth control group and a reference group treated with paclitaxel (30 mg/kg i.v. qod×5). A first chemical entity was evaluated at doses of 300 or 150 mg/kg administered intraperitoneally (i.p.) once daily and at 150 mg/kg administered i.p. twice daily. Doses were administered on study days 1 to 5 and 8 to 12. Tumors were measured twice weekly during the 60-day study. Each animal was euthanized when its tumor reached the endpoint volume of 1500 mm3 or on Day 60, whichever came first, and the time to endpoint (TTE) was calculated for each mouse. Treatment outcome was determined from percent tumor growth delay (% TGD), defined as the percent increase in median TTE of treated versus control mice, with differences in TTE values deemed significant at P □0.05 using logrank analysis. The results presented were calculated based on data acquired through day 33 of the study. The median TTE of the untreated control group was 20.8 days.
A second chemical entity was similarly evaluated at 500 mg/kg administered i.p. once daily.

Compound	GI50 (A549 cells) [nM]	percent tumor growth delay (% TGD) ([1]; data through day 33, statistically significant) [%]	tumor growth delay (T-C) ([1]; maximum possible in this study, untreated control median TTE 20.8 days) [days]
NC(=O)NO [hydroxyurea]	500000		
O=c1[nH]cc(F)c(=O)[nH]1 [5-fluorouracil]	1000		
CC(=O)O[C@H]1C(=O)[C@@]2(C)[C@H]([C@H](OC(=O)c3ccccc3)[C@]3(O)C[C@H](OC(=O)[C@H](O)[C@@H](NC(=O)c4ccccc4)c4ccccc4)C(C)=C1C3(C)C)[C@]1(OC(C)=O)CO[C@@H]1C[C@@H]2O [paclitaxel]	4	58	12.2
COc1cccc2c1C(=O)c1c(O)c3c(c(O)c1C2=O)C[C@@](O)(C(=O)CO)C[C@@H]3O[C@H]1C[C@H](N)[C@H](O)[C@H](C)O1 [doxorubicin]	63		
